Source: the NIST ThermoML archive (doi:10.1016/j.jct.2012.12.018)

Assay: xn = mol fraction of the nth substance listed
Settings: Gas, Buoyancy - hydrostatic balance with magnetic suspension - one sinker, x2 = 0.8977

N#N [nitrogen] + C
Settings | mass density [kg/m3]
170.59 K, 761.2 kPa | 10.0103
170.59 K, 1037.8 kPa | 14.0966
170.59 K, 1287.8 kPa | 18.0625
170.6 K, 455.1 kPa | 5.7907
187.47 K, 422.8 kPa | 4.8286
187.47 K, 722.4 kPa | 8.4419
187.47 K, 1064.8 kPa | 12.7954
187.47 K, 1349.6 kPa | 16.6251
217.54 K, 441.1 kPa | 4.2954
217.54 K, 1298.9 kPa | 13.1778
217.54 K, 1475.3 kPa | 15.0994
217.55 K, 724.1 kPa | 7.1436
217.55 K, 1017.9 kPa | 10.1853
240.48 K, 975.3 kPa | 8.695
240.48 K, 1256.7 kPa | 11.3113
240.48 K, 1594.5 kPa | 14.5212
240.49 K, 438.2 kPa | 3.8367
240.49 K, 715.8 kPa | 6.3263
261 K, 145.7 kPa | 1.1633
261 K, 436.6 kPa | 3.5148
261 K, 729 kPa | 5.9093
261 K, 1021.7 kPa | 8.3427
270.05 K, 133.3 kPa | 1.0285
270.05 K, 424.6 kPa | 3.2976
270.05 K, 731.4 kPa | 5.7195
270.05 K, 1025.7 kPa | 8.0721
270.05 K, 1195.4 kPa | 9.445
